The source of these data is patent publication US20230159989A1, “MULTIPLEXED FLUORESCENCE IN SITU HYBRIDIZATION METHOD CAPABLE OF RAPID DETECTION OF BILLIONS OF TARGETS” (Kanvas Biosciences, Inc., priority 2021, published 2023).

A value given as a limit tells only on which side of the number the result lay.

The test system of this assay is carbapenem-resistant K. pneumoniae. Description: HiPR-FISH chip antimicrobial susceptibility / MIC by growth imaging at several meropenem concentrations. The assay is classed as cell-based. The following applies: Klebsiella pneumoniae, several hours growth on a HiPR-FISH chip, in agreement with Clinical and Laboratory Standards Institute criteria, read-out: meropenem concentration beyond which the strain still grows (* denotes MIC).

For the molecule `C[C@@H](O)[C@H]1C(=O)N2C(C(=O)O)=C(S[C@@H]3CN[C@H](C(=O)N(C)C)C3)[C@H](C)[C@H]12` [meropenem], the MIC is greater than 2 µg/mL.
